Laboratory results from patent US11479533B2, “Inhibitors of Rho associated coiled-coil containing protein kinase” (KADMON CORPORATION, LLC, priority 2017, dated 2022).

How the values were obtained:
[1] = system: histamine-induced vascular permeability; experiment: Histamine-induced vascular permeability model in mice; type: in vivo, mouse; conditions: single oral dose 1 hr. prior to histamine injection
Protocol: Histamine-induced vascular permeability model in mice: 7-8 weeks old Balb/c female mice were acclimated at least 3 days, and randomly assigned to groups. Animals were injected i.v. with 1% Evans Blue at a dose 100 μl/mouse. 10 minutes later animals in disease groups were given 1 μg of histamine in 20 μl PBS intradermally on the back and sacrificed 20 minutes after administration. 20 μL PBS were injected intradermal into the animal back in sham control. Vehicle and test articles were dosed via oral gavage accordingly. Positive control salbutamol was administered 15 minutes before Evans blue. 20 minutes post challenge with histamine, animals were euthanized. The skin was then inverted, the lesion diameters were measured. The area of the lesion was calculated and expressed in square millimeters. Following diameter measurements, Evan's Blue dye was extracted from the skin tissue and the optical density was measured. Data are calculated against a spiked in Evan's Blue standard curve. The extent of compound efficacy was quantitated by calculating both the overall skin spot area and the amount of Evans Blue dye permeating the skin. 20 Minutes post challenge with histamine, animals were euthanized, the lesion diameters were measured. The area of the lesion was calculated and expressed in square millimeters. […]

[2] = target: recombinant ROCK2 (amino acids 1-552) (Homo sapiens (Human), UniProt O75116); experiment: Z'-lyte kinase assay, ROCK2; type: biochemical
Outline: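 Inhibition of recombinant human ROCK2 (residues 1-552, sourced from ThermoFisher Scientific) was assessed in vitro with the Z'-lyte kinase kit. Kinase activity with compound was normalized to DMSO control to give percent inhibition. IC50s came from 9-point 2-fold serial dilutions fitted by nonlinear regression in GraphPad Prism.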

[3] = system: bleomycin induced lung fibrosis; experiment: Bleomycin induced lung fibrosis in mice (therapeutic administration); type: in vivo, mouse; conditions: oral once daily Day 7 to Day 20
Protocol: Bleomycin induced lung fibrosis in mice (therapeutic administration): Male C57B/L6 mice were housed for acclimation for no less than 7 days. After acclimation period, animals were randomly assigned to treatment groups. On day 0, mice were anesthetized with 5% isoflurane by inhalation for 10-15 mins and then suspended by their front teeth on a wire attached to a fixed animal operating plate. 50 μL of saline or bleomycin solution was administered via intratracheal instillation. Mice in treatment groups were intratracheally instilled with bleomycin hydrochloride (BLM) 2.0 U/kg (mg/kg) in sterile saline. On day 7 following bleomycin administration, half of the animals in vehicle group were sacrificed to establish a baseline for the level of fibrosis at the treatment initiation. Mice in normal control group received saline by p.o. once daily from Day 7 to Day 20. Treatment group mice received the compound dosed orally once daily from Day 7 to Day 20. On Day 20, 2-3 hours posted the last dose, all mice were sacrificed. Lungs were gently lavaged via the tracheal cannula with 0.8 mL of PBS containing 1% BSA and 0.6 mM EDTA. […] The activity of ROCK inhibitors in attenuating pulmonary fibrosis in a therapeutic dosing setting was assessed in a bleomycin-induced model, following intratracheal bleomycin installation to induce lung tissue damage and consequent fibrosis of the lung. […]

[4] = system: ACTA2-promoter-driven-luciferase in NIH3T3 cells; experiment: NIH3T3 Acta2-promoter driven-luciferase assay; type: cell-based; conditions: Mus musculus, plus TGFβ1, 24 hr, read-out: NIH3T3, Acta2-luc, IC50
Outline: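 Stable NIH3T3 line carrying luciferase reporter under human ACTA2 promoter (−1000-1 bp); confluent cells given 9-point compound dilutions with TGFβ1 for 24 hr. Lysed cells read for luciferase; IC50 from nonlinear regression fit.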

[5] = system: ppMlc (T18/S19) and pMypt (T853) in Svec 4-10 mouse endothelial cells; experiment: Western blot of Svec 4-10 cell lysates; type: cell-based; conditions: 110 nM, 120 min
Protocol: FIG. 1d. Western blot of SVEC4-10 cell lysates to visualize ppMlc (T18/S19) & pMYPT (T853) levels following treatment with the compound of Example 2 for 120 min. SVEC4-10 cells were treated with the compound and phosphorylated proteins were visualized by western blotting.
Compounds ROCK activities were tested in additional cell types. Svec 4-10 mouse endothelial cells were treated with the compound of Example 2 for 120 min and ppMlc (T18/S19) and pMypt (T853) levels were visualized by western blotting.

recombinant ROCK2 (amino acids 1-552), sequence (O75116 1-552): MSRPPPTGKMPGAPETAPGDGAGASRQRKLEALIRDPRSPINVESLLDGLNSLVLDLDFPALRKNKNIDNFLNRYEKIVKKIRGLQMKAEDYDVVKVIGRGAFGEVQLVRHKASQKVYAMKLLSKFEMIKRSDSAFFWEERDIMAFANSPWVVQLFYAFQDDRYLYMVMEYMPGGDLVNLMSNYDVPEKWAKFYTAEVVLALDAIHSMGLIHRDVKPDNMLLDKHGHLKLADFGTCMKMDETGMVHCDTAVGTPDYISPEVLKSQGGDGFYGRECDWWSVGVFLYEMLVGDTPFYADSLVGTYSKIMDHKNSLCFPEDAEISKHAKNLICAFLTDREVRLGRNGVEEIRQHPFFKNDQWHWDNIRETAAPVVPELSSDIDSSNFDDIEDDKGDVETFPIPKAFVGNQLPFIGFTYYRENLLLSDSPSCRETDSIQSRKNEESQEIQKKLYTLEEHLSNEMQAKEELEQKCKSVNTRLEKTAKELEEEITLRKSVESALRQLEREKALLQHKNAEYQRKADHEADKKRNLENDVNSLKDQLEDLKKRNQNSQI

CNC(C(=O)Nc1ccc(-c2cn[nH]c2)cc1)c1cccc(OC)c1 (centres unmarked) [Example 2, N-(4-(1H-pyrazol-4-yl)phenyl)-2-(3-methoxyphenyl)-2-(methylamino)acetamide]
vascular permeability induced by histamine (Evan's Blue extravasation) [1]: blocked the vascular permeability induced by histamine in a dose dependent manner
IC50 [2]: 4 nM
collagen amounts in the lungs (Masson's trichrome) [3]: significantly lower
IC50 [4]: 352 nM
phosphorylation of ROCK targets MLC and MYPT1 [5]: efficiently blocked phosphorylation
